Source: patent publication US12281080B2, “Quinoline-based compounds and methods of inhibiting CDK8/19” (University of South Carolina, priority 2018, dated 2025)

Legend:
Assay in all cases: KINOMEscan scanMAX
Assay type in all cases: binding
Settings in all cases: 2000 nM; read-out: Percent Control
[1] = target: ACVR1 (Homo sapiens (Human), UniProt Q04771)
[2] = target: ACVR2A (Homo sapiens (Human), UniProt P27037)
[3] = target: ACVRL1 (Homo sapiens (Human), UniProt P37023)
[4] = target: AKT3 (Homo sapiens (Human), UniProt Q9Y243)
[5] = target: AURKC (Homo sapiens (Human), UniProt Q9UQB9)
Chain of AURKC (Q9UQB9 whole entry): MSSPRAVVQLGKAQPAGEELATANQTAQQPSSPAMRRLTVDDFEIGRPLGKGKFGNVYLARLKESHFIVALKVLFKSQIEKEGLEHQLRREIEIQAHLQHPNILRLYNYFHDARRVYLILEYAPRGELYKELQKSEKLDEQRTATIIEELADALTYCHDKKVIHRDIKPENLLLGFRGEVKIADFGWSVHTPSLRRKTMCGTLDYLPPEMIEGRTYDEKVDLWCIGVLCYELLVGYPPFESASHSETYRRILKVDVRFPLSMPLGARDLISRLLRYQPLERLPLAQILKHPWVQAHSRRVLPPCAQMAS

[6] = target: CDC2L5 (CDK13) (Homo sapiens (Human), UniProt Q14004)
[7] = target: CLK3 (Homo sapiens (Human), UniProt P49761)
[8] = target: DCAMKL3 (DCLK3) (Homo sapiens (Human), UniProt Q9C098)
[9] = target: DRAK1 (STK17A) (Homo sapiens (Human), UniProt Q9UEE5)
[10] = target: EPHA5 (Homo sapiens (Human), UniProt P54756)
[11] = target: EPHB2 (Homo sapiens (Human), UniProt P29323)
[12] = target: ERK3 (MAPK6) (Homo sapiens (Human), UniProt Q16659)
[13] = target: FGFR3 (Homo sapiens (Human), UniProt P22607)
[14] = target: GAK (Homo sapiens (Human), UniProt O14976)
[15] = target: INSRR (Homo sapiens (Human), UniProt P14616)
Chain of INSRR (P14616 27-1297): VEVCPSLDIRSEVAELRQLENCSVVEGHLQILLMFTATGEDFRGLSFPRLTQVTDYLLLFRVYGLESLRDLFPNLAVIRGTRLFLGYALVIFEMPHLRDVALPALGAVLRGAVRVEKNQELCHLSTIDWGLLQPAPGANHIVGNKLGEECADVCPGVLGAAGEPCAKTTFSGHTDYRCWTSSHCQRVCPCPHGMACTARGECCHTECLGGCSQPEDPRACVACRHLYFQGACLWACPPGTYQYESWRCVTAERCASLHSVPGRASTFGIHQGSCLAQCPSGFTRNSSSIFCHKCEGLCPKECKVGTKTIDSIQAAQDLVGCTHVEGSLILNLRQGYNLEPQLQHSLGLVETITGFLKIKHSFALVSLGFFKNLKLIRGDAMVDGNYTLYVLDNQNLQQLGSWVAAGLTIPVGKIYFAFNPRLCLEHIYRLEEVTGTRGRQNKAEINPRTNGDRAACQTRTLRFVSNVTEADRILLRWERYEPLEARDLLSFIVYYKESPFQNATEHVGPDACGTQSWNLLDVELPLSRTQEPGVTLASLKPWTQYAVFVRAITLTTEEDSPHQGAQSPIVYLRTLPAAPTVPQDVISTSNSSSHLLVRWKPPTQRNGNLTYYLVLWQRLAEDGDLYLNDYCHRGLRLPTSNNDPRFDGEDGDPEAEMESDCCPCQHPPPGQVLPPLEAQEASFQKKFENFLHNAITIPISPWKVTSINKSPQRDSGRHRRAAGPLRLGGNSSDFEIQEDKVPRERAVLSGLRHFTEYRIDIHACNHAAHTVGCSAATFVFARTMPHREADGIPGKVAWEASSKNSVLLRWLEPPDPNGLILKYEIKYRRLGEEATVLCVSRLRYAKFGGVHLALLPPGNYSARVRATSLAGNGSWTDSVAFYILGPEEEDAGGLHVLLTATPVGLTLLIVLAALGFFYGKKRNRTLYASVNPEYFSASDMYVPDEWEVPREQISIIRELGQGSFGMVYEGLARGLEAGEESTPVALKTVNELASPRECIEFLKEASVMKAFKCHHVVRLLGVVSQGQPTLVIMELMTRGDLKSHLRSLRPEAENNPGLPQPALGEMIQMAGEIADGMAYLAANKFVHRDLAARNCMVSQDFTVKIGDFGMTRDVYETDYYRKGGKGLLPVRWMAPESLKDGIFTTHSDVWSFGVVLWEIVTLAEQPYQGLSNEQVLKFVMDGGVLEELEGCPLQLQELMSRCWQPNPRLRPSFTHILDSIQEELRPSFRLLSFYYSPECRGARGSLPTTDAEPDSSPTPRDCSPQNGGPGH

[16] = target: IRAK3 (Homo sapiens (Human), UniProt Q9Y616)
[17] = target: ITK (Homo sapiens (Human), UniProt Q08881)
[18] = target: LIMK1 (Homo sapiens (Human), UniProt P53667)
[19] = target: MAK (Homo sapiens (Human), UniProt P20794)
[20] = target: MAP3K1 (Homo sapiens (Human), UniProt Q13233)
[21] = target: MET(M1250T) (Homo sapiens (Human), UniProt P08581, M1250T)
[22] = target: MET(Y1235D) (Homo sapiens (Human), UniProt P08581, Y1235D)
[23] = target: MINK (MINK1) (Homo sapiens (Human), UniProt Q8N4C8)
[24] = target: MLK2 (MAP3K10) (Homo sapiens (Human), UniProt Q02779)
Chain of MLK2 (MAP3K10) (Q02779 whole entry): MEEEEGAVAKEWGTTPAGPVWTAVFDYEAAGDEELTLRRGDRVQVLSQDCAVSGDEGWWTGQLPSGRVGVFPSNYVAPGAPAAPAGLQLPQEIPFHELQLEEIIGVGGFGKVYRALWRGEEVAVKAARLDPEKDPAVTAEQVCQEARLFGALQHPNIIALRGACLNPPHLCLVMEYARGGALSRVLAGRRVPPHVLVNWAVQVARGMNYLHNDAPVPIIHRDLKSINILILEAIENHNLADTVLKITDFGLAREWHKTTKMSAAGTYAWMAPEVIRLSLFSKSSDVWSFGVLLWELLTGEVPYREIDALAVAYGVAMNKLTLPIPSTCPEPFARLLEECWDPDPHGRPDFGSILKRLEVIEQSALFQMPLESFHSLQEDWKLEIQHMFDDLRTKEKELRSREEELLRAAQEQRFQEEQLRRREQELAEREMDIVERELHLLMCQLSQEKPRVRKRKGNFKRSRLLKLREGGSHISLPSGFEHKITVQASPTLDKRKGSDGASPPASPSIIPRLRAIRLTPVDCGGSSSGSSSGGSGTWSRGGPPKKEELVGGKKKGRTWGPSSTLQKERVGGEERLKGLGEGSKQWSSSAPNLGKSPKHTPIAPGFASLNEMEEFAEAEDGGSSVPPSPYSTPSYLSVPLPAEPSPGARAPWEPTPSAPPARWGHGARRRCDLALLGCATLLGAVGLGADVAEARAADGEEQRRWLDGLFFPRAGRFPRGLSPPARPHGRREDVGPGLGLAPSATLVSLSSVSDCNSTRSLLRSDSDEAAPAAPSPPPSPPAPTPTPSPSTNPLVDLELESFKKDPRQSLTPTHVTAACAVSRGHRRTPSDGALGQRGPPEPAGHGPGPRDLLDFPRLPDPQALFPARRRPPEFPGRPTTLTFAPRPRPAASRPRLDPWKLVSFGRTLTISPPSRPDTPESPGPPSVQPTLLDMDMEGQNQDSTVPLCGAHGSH

[25] = target: p38-delta (MAPK13) (Homo sapiens (Human), UniProt O15264)
Chain of p38-delta (MAPK13) (O15264 whole entry): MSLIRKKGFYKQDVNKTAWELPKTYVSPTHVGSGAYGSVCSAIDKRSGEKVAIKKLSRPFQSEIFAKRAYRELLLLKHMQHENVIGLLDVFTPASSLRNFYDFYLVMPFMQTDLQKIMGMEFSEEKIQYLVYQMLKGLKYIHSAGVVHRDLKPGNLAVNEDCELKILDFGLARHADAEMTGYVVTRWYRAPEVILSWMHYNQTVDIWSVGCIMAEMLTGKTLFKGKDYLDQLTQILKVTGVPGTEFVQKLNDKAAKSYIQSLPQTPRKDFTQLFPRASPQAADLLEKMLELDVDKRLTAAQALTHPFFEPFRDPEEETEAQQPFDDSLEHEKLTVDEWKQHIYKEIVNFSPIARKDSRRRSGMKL

[26] = target: PIK3CG (Homo sapiens (Human), UniProt P48736)
[27] = target: PRKG2 (Homo sapiens (Human), UniProt Q13237)
[28] = target: PYK2 (PTK2B) (Homo sapiens (Human), UniProt Q14289)
[29] = target: RET(V804L) (Homo sapiens (Human), UniProt P07949, V804L)
[30] = target: RIPK2 (Homo sapiens (Human), UniProt O43353)
[31] = target: ROS1 (Homo sapiens (Human), UniProt P08922)
[32] = target: RSK4(Kin.Dom.2-C-terminal) (RPS6KA6) (Homo sapiens (Human), UniProt Q9UK32)
[33] = target: SGK3 (Homo sapiens (Human), UniProt Q96BR1)
[34] = target: SRPK2 (Homo sapiens (Human), UniProt P78362)
[35] = target: STK36 (Homo sapiens (Human), UniProt Q9NRP7)
[36] = target: TRPM6 (Homo sapiens (Human), UniProt Q9BX84)
Chain of TRPM6 (Q9BX84 whole entry): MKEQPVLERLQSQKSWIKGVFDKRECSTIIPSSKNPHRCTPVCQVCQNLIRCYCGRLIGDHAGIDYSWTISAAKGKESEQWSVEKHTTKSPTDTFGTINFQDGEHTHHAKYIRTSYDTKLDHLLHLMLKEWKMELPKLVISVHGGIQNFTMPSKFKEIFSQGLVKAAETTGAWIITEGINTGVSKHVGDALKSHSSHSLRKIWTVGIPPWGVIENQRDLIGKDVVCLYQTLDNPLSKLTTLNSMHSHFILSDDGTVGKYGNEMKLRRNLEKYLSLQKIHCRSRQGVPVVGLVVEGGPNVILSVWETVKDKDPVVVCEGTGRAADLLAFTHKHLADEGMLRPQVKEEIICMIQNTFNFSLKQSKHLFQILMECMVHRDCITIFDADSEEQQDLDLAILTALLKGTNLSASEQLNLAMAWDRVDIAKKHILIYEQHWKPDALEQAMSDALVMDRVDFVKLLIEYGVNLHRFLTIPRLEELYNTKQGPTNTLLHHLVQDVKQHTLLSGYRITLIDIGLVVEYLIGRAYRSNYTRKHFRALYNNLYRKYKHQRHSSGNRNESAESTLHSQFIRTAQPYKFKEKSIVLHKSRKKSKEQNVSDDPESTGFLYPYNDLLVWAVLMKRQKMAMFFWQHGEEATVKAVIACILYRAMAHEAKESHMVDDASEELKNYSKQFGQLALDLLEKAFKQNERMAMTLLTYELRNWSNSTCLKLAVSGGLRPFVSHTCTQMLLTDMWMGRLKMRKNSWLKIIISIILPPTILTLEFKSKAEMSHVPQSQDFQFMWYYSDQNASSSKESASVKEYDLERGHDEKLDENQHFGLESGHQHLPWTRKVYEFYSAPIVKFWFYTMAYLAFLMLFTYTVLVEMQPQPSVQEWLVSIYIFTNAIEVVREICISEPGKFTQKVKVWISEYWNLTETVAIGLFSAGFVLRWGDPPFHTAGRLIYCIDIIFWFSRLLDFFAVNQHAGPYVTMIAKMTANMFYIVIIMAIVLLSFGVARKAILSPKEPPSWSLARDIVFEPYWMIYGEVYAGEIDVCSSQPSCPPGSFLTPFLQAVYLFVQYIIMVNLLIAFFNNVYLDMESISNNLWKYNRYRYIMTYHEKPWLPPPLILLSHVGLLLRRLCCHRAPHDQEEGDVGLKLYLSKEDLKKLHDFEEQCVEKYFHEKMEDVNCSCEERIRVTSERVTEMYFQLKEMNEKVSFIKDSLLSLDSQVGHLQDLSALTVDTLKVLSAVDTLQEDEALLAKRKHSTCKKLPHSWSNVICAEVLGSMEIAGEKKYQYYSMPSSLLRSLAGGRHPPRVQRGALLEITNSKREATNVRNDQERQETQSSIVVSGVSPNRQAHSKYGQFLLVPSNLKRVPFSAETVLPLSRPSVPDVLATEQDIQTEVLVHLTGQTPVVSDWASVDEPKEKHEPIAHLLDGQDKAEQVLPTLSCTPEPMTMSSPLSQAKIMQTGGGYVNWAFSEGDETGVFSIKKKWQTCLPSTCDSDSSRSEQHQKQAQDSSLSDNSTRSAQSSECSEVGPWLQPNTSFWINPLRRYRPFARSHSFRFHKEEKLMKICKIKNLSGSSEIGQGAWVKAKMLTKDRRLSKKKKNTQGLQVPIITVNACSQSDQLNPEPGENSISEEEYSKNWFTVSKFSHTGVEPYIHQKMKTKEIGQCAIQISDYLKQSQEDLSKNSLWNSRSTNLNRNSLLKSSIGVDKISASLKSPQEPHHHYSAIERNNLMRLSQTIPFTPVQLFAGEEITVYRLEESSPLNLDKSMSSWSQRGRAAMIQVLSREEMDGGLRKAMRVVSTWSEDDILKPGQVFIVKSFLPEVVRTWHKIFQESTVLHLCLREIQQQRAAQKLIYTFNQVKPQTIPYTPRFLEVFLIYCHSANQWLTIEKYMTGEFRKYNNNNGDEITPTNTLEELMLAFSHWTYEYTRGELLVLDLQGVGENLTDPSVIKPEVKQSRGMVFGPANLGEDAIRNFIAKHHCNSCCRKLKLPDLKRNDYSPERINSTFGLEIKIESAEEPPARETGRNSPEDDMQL

[37] = target: TSSK1B (Homo sapiens (Human), UniProt Q9BXA7)
[38] = target: ULK2 (Homo sapiens (Human), UniProt Q8IYT8)
[39] = target: YANK2 (STK32B) (Homo sapiens (Human), UniProt Q9NY57)
[40] = target: ZAP70 (Homo sapiens (Human), UniProt P43403)

## CN1CCN(C(=O)c2ccc3cc(CCNc4ccnc5ccc(C#N)cc45)ccc3c2)CC1 [compound 6148, 4-((2-(6-(4-methylpiperazine-1-carbonyl)naphthalen-2-yl)ethyl)amino)quinoline-6-carbonitrile]
[1]
  remaining binding at 2 µM: 92%
[2]
  remaining binding at 2 µM: 89%
[3]
  remaining binding at 2 µM: 93%
[4]
  remaining binding at 2 µM: 100%
[5]
  remaining binding at 2 µM: 100%
[6]
  remaining binding at 2 µM: 64%
[7]
  remaining binding at 2 µM: 65%
[8]
  remaining binding at 2 µM: 96%
[9]
  remaining binding at 2 µM: 100%
[10]
  remaining binding at 2 µM: 97%
[11]
  remaining binding at 2 µM: 86%
[12]
  remaining binding at 2 µM: 89%
[13]
  remaining binding at 2 µM: 100%
[14]
  remaining binding at 2 µM: 100%
[15]
  remaining binding at 2 µM: 88%
[16]
  remaining binding at 2 µM: 94%
[17]
  remaining binding at 2 µM: 93%
[18]
  remaining binding at 2 µM: 95%
[19]
  remaining binding at 2 µM: 100%
[20]
  remaining binding at 2 µM: 78%
[21]
  remaining binding at 2 µM: 88%
[22]
  remaining binding at 2 µM: 78%
[23]
  remaining binding at 2 µM: 56%
[24]
  remaining binding at 2 µM: 79%
[25]
  remaining binding at 2 µM: 97%
[26]
  remaining binding at 2 µM: 76%
[27]
  remaining binding at 2 µM: 84%
[28]
  remaining binding at 2 µM: 92%
[29]
  remaining binding at 2 µM: 88%
[30]
  remaining binding at 2 µM: 100%
[31]
  remaining binding at 2 µM: 91%
[32]
  remaining binding at 2 µM: 96%
[33]
  remaining binding at 2 µM: 75%
[34]
  remaining binding at 2 µM: 94%
[35]
  remaining binding at 2 µM: 88%
[36]
  remaining binding at 2 µM: 88%
[37]
  remaining binding at 2 µM: 100%
[38]
  remaining binding at 2 µM: 71%
[39]
  remaining binding at 2 µM: 89%
[40]
  remaining binding at 2 µM: 81%
